Measured values published in patent publication US20200385371A1 (Propellon Therapeutics Inc., priority 2017, published 2020).

How the values were obtained:
[1] = target: T1, WDR5 (Homo sapiens, UniProt P61964); assay: Fluorescence Polarization (FP) binding assay
In short: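 Buffer was pH 6.5 sodium phosphate (80 mM) with 20 mM KCl and 0.008% Triton X-100; 9-Ala-FAM probe at 20 nM used 0.05 μM WDR5 and 480/540 nm polarization, H3 (1-15) probe at 30 nM used 0.3 μM WDR5 and 485/528 nm. Quadruplicate data were hyperbola-fitted to give Kdisp.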

[2] = test system: MV4-11 cells; assay: Cell proliferation assay (ATPlite); type: cell-based; settings: Homo sapiens, 120 h; MV4-11 cells, five days; read-out: GI MV411 EC50
Experimental: MV4-11 cells were seeded into a 96-well plate at 1,000 cells/well in 150 μl medium (Alpha-MEM containing 10% FBS, 100 μg/ml Normocin, and 50 μg/ml Gentamycin, Invitrogen). A HP D300 digital dispenser was used to dose cells with DMSO or test compounds across a 10-point range of concentrations (high dose of 10 μM), and cultures were grown in a humidified 5% CO2 incubator at 37° C. After five days, plates were removed from incubator and equilibrated to room temperature. An equal volume of ATPlite assay reagent was added to each well, and samples were processed according to manufacturer's instructions (Perkin Elmer). Luminescent signal was measured using an Envision plate reader equipped with a US-Luminescence detector.

[3] = target: T1, WDR5; assay: Surface Plasmon Resonance (SPR) assay; type: binding; design: Full length WDR5 with an N-terminal His tag and C-terminal AviTag; His tag (N); made in house; host or cells: E. coli; settings: read-out: SPR Kd
In short: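 Full-length biotinylated WDR5 (N-His, C-AviTag, E. coli) captured (~3000 RU) on streptavidin SA chip; Biacore T200. HBS-EP pH 7.4 plus 5% DMSO running buffer, 40 μl/min.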

SMILES	IC50 [1] [nM]	EC50 [2] [nM]	Kd [3] [nM]
C[C@@H]1CN(c2cc(F)c(C3=CCCN(c4ncc(C#N)s4)C3)c(F)c2NC(=O)c2c[nH]c(=O)cc2C(F)(F)F)C[C@H](C)N1C [Example 149, N-(3-(1-(5-cyanothiazol-2-yl)-1,2,5,6-tetrahydropyridin-3-yl)-2,4-difluoro-6-((3S,5R)-3,4,5-trimethylpiperazin-1-yl)phenyl)-6-oxo-4-(trifluoromethyl)-1,6-dihydropyridine-3-carboxamide]	14.6	106	1.8
C[C@H]1CN(c2cc(F)c(C3=CCN(C(=O)OC4CC(F)(F)C4)CC3)c(F)c2NC(=O)c2c[nH]c(=O)cc2C(F)F)CCN1C [Example 42, 3,3-Difluorocyclobutyl (S)-4-(3-(4-(difluoromethyl)-6-oxo-1,6-dihydropyridine-3-carboxamido)-4-(3,4-dimethylpiperazin-1-yl)-2,6-difluorophenyl)-3,6-dihydropyridine-1(2H)-carboxylate]	11.2	281	2.38
C[C@@H]1CN(c2nccc(-c3c(F)cc(N4CCN(C)[C@@H](C)C4)c(NC(=O)c4ccc(F)cc4C(F)F)c3F)n2)C[C@H](C)O1 [Example 32, 2-(Difluoromethyl)-N-(3-(2-((2S,6R)-2,6-dimethylmorpholino)pyrimidin-4-yl)-6-((S)-3,4-dimethylpiperazin-1-yl)-2,4-difluorophenyl)-4-fluorobenzamide Formic Acid]	33	286	5.07
C[C@@H]1CN(c2cc(F)c(C3=CCN(c4ncc(F)cn4)CC3)c(F)c2NC(=O)c2c[nH]c(=O)cc2C(F)(F)F)C[C@H](C)N1C [Example 145, N-(2,4-difluoro-3-(1-(5-fluoropyrimidin-2-yl)-1,2,3,6-tetrahydropyridin-4-yl)-6-((3S,5R)-3,4,5-trimethylpiperazin-1-yl)phenyl)-6-oxo-4-(trifluoromethyl)-1,6-dihydropyridine-3-carboxamide]	13.9	58.9	0.84
CC(C)OC(=O)N1CC=C(c2c(F)cc(N3C[C@@H](C)N(C)[C@@H](C)C3)c(NC(=O)c3c[nH]c(=O)cc3C(F)(F)F)c2F)C1 [Example 134]	11.4	55.8	0.87
C[C@H]1CN(c2cc(F)c(C3=CCN(C(=O)OC4CC(F)(F)C4)C3)c(F)c2NC(=O)c2c[nH]c(=O)cc2C(F)F)CCN1C [Example 44]	14.4	180	2.32
CC(C)OC(=O)N1CCC=C(c2c(F)cc(N3CCN(C)[C@@H](C)C3)c(NC(=O)c3c[nH]c(=O)cc3C(F)(F)F)c2F)C1 [Example 38, Isopropyl (S)-5-(4-(3,4-dimethylpiperazin-1-yl)-2,6-difluoro-3-(6-oxo-4-(trifluoromethyl)-1,6-dihydropyridine-3-carboxamido)phenyl)-3,6-dihydropyridine-1(2H)-carboxylate]	17.4	185	16.4
C[C@@H]1CN(c2cc(F)c(C3=CCN(C(=O)OC4CC(F)(F)C4)CC3)c(F)c2NC(=O)c2c[nH]c(=O)cc2C(F)(F)F)C[C@H](C)N1C [Example 135, 3,3-Difluorocyclobutyl 4-(2,6-difluoro-3-(6-oxo-4-(trifluoromethyl)-1,6-dihydropyridine-3-carboxamido)-4-((3S,5R)-3,4,5-trimethylpiperazin-1-yl)phenyl)-5,6-dihydropyridine-1(2H)-carboxylate]	12.5	67.4	2.31
C[C@H]1CN(c2cc(F)c(C3=CCCN(c4ccnc(C#N)n4)C3)c(F)c2NC(=O)c2c[nH]c(=O)cc2C(F)(F)F)CCN1C [Example 114, (S)—N-(3-(1-(2-cyanopyrimidin-4-yl)-1,2,5,6-tetrahydropyridin-3-yl)-6-(3,4-dimethylpiperazin-1-yl)-2,4-difluorophenyl)-6-oxo-4-(trifluoromethyl)-1,6-dihydropyridine-3-carboxamide]	15.9	36.6	2.42
Cc1sc(-c2c(F)cc(N3CCN(C)[C@@H](C)C3)c(NC(=O)c3ccc(F)cc3C(F)F)c2F)nc1C(=O)N1CCCC1 [Example 153, (S)-2-(difluoromethyl)-N-(6-(3,4-dimethylpiperazin-1-yl)-2,4-difluoro-3-(5-methyl-4-(pyrrolidine-1-carbonyl)thiazol-2-yl)phenyl)-4-fluorobenzamide]	5	70.1	1.18
COc1cnc(N2CC=C(c3c(F)cc(N4CCN(C)[C@@H](C)C4)c(NC(=O)c4c[nH]c(=O)cc4C(F)(F)F)c3F)CC2)nc1 [Example 53, (S)—N-(6-(3,4-dimethylpiperazin-1-yl)-2,4-difluoro-3-(1-(5-methoxypyrimidin-2-yl)-1,2,3,6-tetrahydropyridin-4-yl)phenyl)-6-oxo-4-(trifluoromethyl)-1,6-dihydropyridine-3-carboxamide]	19.5	75.8	1.02
COc1cc(N2CCC=C(c3c(F)cc(N4CCN(C)[C@@H](C)C4)c(NC(=O)c4c[nH]c(=O)cc4C(F)F)c3F)C2)ncn1 [Example 79, (S)-4-(difluoromethyl)-N-(6-(3,4-dimethylpiperazin-1-yl)-2,4-difluoro-3-(1-(6-methoxypyrimidin-4-yl)-1,2,5,6-tetrahydropyridin-3-yl)phenyl)-6-oxo-1,6-dihydropyridine-3-carboxamide]	13.6	223	1.67
C[C@@H]1CN(c2cc(F)c(-c3ccc(N4CCOCC4)c(F)c3)c(F)c2NC(=O)c2c[nH]c(=O)cc2C(F)(F)F)C[C@H](C)N1C [Example 9, 6-Oxo-N-(2,3′,6-trifluoro-4′-morpholino-4-((3S,5R)-3,4,5-trimethylpiperazin-1-yl)-[1,1′-biphenyl]-3-yl)-4-(trifluoromethyl)-1,6-dihydropyridine-3-carboxamide]	15.3	123	1.33
C[C@H]1CN(c2cc(F)c(C3=CCN(c4ncc(C#N)s4)CC3)c(F)c2NC(=O)c2c[nH]c(=O)cc2C(F)F)CCN1C [Example 97, (S)—N-(3-(1-(5-cyanothiazol-2-yl)-1,2,3,6-tetrahydropyridin-4-yl)-6-(3,4-dimethylpiperazin-1-yl)-2,4-difluorophenyl)-4-(difluoromethyl)-6-oxo-1,6-dihydropyridine-3-carboxamide]	13.6	138	0.78
C[C@@H]1CN(c2cc(F)c(-c3ccc4c(c3)OCCO4)c(F)c2NC(=O)c2c[nH]c(=O)cc2C(F)(F)F)C[C@H](C)N1C [Example 72, N-(3-(2,3-dihydrobenzo[b][1,4]dioxin-6-yl)-2,4-difluoro-6-((3S,5R)-3,4,5-trimethylpiperazin-1-yl)phenyl)-6-oxo-4-(trifluoromethyl)-1,6-dihydropyridine-3-carboxamide]	18.2	99.1	0.7
CC(C)[C@@H]1CN(c2ncc(-c3c(F)cc(N4C[C@@H](C)N(C)[C@@H](C)C4)c(NC(=O)c4c[nH]c(=O)cc4C(F)(F)F)c3F)cn2)CCO1 [Example 105, N-(2,4-difluoro-3-(2-((R)-2-isopropylmorpholino)pyrimidin-5-yl)-6-((3S,5R)-3,4,5-trimethylpiperazin-1-yl)phenyl)-6-oxo-4-(trifluoromethyl)-1,6-dihydropyridine-3-carboxamide]	14.7	14.3	3.89
C[C@@H]1CN(c2cc(F)c(C3=CCN(c4ncc(C#N)s4)C3)c(F)c2NC(=O)c2c[nH]c(=O)cc2C(F)(F)F)C[C@H](C)N1C [Example 150, N-(3-(1-(5-cyanothiazol-2-yl)-2,5-dihydro-1H-pyrrol-3-yl)-2,4-difluoro-6-((3S,5R)-3,4,5-trimethylpiperazin-1-yl)phenyl)-6-oxo-4-(trifluoromethyl)-1,6-dihydropyridine-3-carboxamide]	12.9	48.4	0.53
C[C@@H]1CN(c2nccc(-c3c(F)cc(N4CCN(C)[C@@H](C)C4)c(NC(=O)c4c[nH]c(=O)cc4C(F)(F)F)c3F)n2)C[C@H](C)O1 [Example 58, N-(3-(2-((2S,6R)-2,6-dimethylmorpholino)pyrimidin-4-yl)-6-((S)-3,4-dimethylpiperazin-1-yl)-2,4-difluorophenyl)-6-oxo-4-(trifluoromethyl)-1,6-dihydropyridine-3-carboxamide]	15.1	99.1	1.25
C[C@@H]1CN(c2cc(F)c(-c3cnc(N4CCOCC4)nc3)c(F)c2NC(=O)c2c[nH]c(=O)cc2C(F)F)C[C@H](C)N1C [Example 41, N-(2,4-difluoro-3-(2-morpholinopyrimidin-5-yl)-6-((3S,5R)-3,4,5-trimethylpiperazin-1-yl)phenyl)-4-(difluoromethyl)-6-oxo-1,6-dihydropyridine-3-carboxamide]	7.1	48.8	0.84
